Assays:
Type in all cases: in vivo
[1] = test system: Setaria viridis (L.) Beauv. (Se); experiment: Test for herbicidal effect by upland field soil treatment (Test Example 2), Se
Procedure: (§1) [table] <Test Example 2> Test For Herbicidal Effect By Upland Field Soil Treatment An upland field soil was filed in a plastic pot of 80 cm^2. Seeds of Echinochloa crus-galli (L.) Beauv. var. crusgall (Ec) and Setaria viridis (L.) Beauv. (Se) were sowed, followed by covering with the same soil. Wettable powders produced in accordance with the Formulation 1 were diluted with water and sprayed uniformly: on the soil surface using a small sprayer, in an amount of 100 liters per 10 ares so that the amount of each active ingredient became 100 g per 10 ares. Then, breeding was made in a greenhouse, and the herbicidal effect of each wettable powder was examined at the 21st day from the treatment in accordance with the standard shown in Table 40.

[2] = test system: Echinochloa oryzicola Vasing. (Eo); experiment: Test for herbicidal effect by paddy field soil treatment (Test Example 1); conditions: application amount (active ingredient) 100 g/10 a, examined at the 21st day from the treatment, index per Table 40
Procedure: <Test Example 1> Test For Herbicidal Effect By Paddy Field Soil Treatment A paddy field soil was filled in a plastic pot of 100 cm^2 and subjected to puddling. Then, seeds of Echinochloa oryzicola Vasing. (Eo) were sowed and water was filled in a depth of 3 cm. Next day, wettable powders produced in accordance with the Formulation 1 were diluted with water and dropped on the water surface. The application amount of each wettable powder was 100 g per 10 ares in terms of the active ingredient. Then, breeding was made in a greenhouse, and the herbicidal effect of each wettable powder was examined at the 21st day from the treatment in accordance with the standard shown in Table 40. [table]

[3] = test system: Echinochloa crus-galli (L.) Beauv. var. crusgalli (Ec); experiment: Test for herbicidal effect by upland foliage treatment (Test Example 3); conditions: 100 g/10 a active ingredient, examined at 14th day
Procedure: Test For Herbicidal Effect By Upland Foliage Treatment
An upland field soil was filed in a plastic pot of 80 cm^2. Seeds of Echinochloa crus-galli (L.) Beauv. var. crusgalli (Ec) were sowed. Breeding was made in a greenhouse for 2 weeks. Wettable powders produced in accordance with the Formulation 1 were diluted with water and sprayed on the whole foliage of plants from above the plants using a small sprayer in an amount of 100 liters per 10 ares so that the amount of each active ingredient became 100 g per 10 ares. Then, breeding was made in the greenhouse, and the herbicidal effect of each wettable powder was examined at the 14th day from the treatment in accordance with the standard shown in Table 40.

[4] = test system: Echinochloa crus-galli (L.) Beauv. var. crusgall (Ec); experiment: Test for herbicidal effect by upland field soil treatment (Test Example 2), Ec
Procedure: as §1

[5] = 100 g/10 a active ingredient, examined at 21st day
[6] = application amount (active ingredient) 100 g/10 a, examined at the 21st day from the treatment, index per Table 40

SMILES | Herbicidal effect to Se [1, 5] | Herbicidal effect to Eo [2] | Herbicidal effect to Ec [3] | Herbicidal effect to Ec [4, 5] | Herbicidal effect to Se [1, 6] | Herbicidal effect to Ec [4, 6]
C#CCOc1cccc(Cl)c1CS(=O)(=O)C1=NOC(C)(C)C1 [Compound 1-591] | 5 (A herbicidal effect or phytotoxicity of 90% or more) | 5 (A herbicidal effect or phytotoxicity of 90% or more) | 4 (A herbicidal effect or phytotoxicity of 70% to less than 90%) | 5 (A herbicidal effect or phytotoxicity of 90% or more) | – | –
CC1(C)CC(S(=O)(=O)Cc2cc(F)cc(C(F)(F)F)c2)=NO1 [Compound 1-542] | 5 (A herbicidal effect or phytotoxicity of 90% or more) | 5 (A herbicidal effect or phytotoxicity of 90% or more) | 4 (A herbicidal effect or phytotoxicity of 70% to less than 90%) | 5 (A herbicidal effect or phytotoxicity of 90% or more) | – | –
Cc1cccc(CS(=O)(=O)C2=NOC(C)(C)C2)c1 [Compound 1-6] | – | 5 (A herbicidal effect or phytotoxicity of 90% or more) | 4 (A herbicidal effect or phytotoxicity of 70% to less than 90%) | – | 5 (A herbicidal effect or phytotoxicity of 90% or more) | 5 (A herbicidal effect or phytotoxicity of 90% or more)
CC1(C)CC(S(=O)(=O)Cc2c(F)cccc2I)=NO1 [Compound 1-548] | 5 (A herbicidal effect or phytotoxicity of 90% or more) | 5 (A herbicidal effect or phytotoxicity of 90% or more) | 5 (A herbicidal effect or phytotoxicity of 90% or more) | 5 (A herbicidal effect or phytotoxicity of 90% or more) | – | –
CC1(C)CC(S(=O)(=O)Cc2ccc(F)cc2Cl)=NO1 [Compound 1-538] | 5 (A herbicidal effect or phytotoxicity of 90% or more) | 5 (A herbicidal effect or phytotoxicity of 90% or more) | 5 (A herbicidal effect or phytotoxicity of 90% or more) | 5 (A herbicidal effect or phytotoxicity of 90% or more) | – | –
CC1(C)CC(S(=O)(=O)Cc2cccc(Cl)c2)=NO1 [Compound 1-3] | – | 5 (A herbicidal effect or phytotoxicity of 90% or more) | 4 (A herbicidal effect or phytotoxicity of 70% to less than 90%) | – | 5 (A herbicidal effect or phytotoxicity of 90% or more) | 5 (A herbicidal effect or phytotoxicity of 90% or more)
CC(C)COc1cccc(Cl)c1CS(=O)(=O)C1=NOC(C)(C)C1 [Compound 1-572] | 5 (A herbicidal effect or phytotoxicity of 90% or more) | 5 (A herbicidal effect or phytotoxicity of 90% or more) | 4 (A herbicidal effect or phytotoxicity of 70% to less than 90%) | 5 (A herbicidal effect or phytotoxicity of 90% or more) | – | –
Cc1cccc(CS(=O)(=O)C2=NOC(C)(C)C2)c1F [Compound 1-187] | – | 5 (A herbicidal effect or phytotoxicity of 90% or more) | 5 (A herbicidal effect or phytotoxicity of 90% or more) | – | 5 (A herbicidal effect or phytotoxicity of 90% or more) | 5 (A herbicidal effect or phytotoxicity of 90% or more)
CCOc1cccc(Cl)c1CS(=O)(=O)C1=NOC(C)(C)C1 [Compound 1-564] | 5 (A herbicidal effect or phytotoxicity of 90% or more) | 5 (A herbicidal effect or phytotoxicity of 90% or more) | 4 (A herbicidal effect or phytotoxicity of 70% to less than 90%) | 5 (A herbicidal effect or phytotoxicity of 90% or more) | – | –
CC1(C)CC(S(=O)(=O)Cc2cccc(OC(F)(F)F)c2)=NO1 [Compound 1-59] | – | 5 (A herbicidal effect or phytotoxicity of 90% or more) | 5 (A herbicidal effect or phytotoxicity of 90% or more) | – | 5 (A herbicidal effect or phytotoxicity of 90% or more) | 5 (A herbicidal effect or phytotoxicity of 90% or more)
CCCCOc1ccccc1CS(=O)(=O)C1=NOC(C)(C)C1 [Compound 1-568] | 5 (A herbicidal effect or phytotoxicity of 90% or more) | 5 (A herbicidal effect or phytotoxicity of 90% or more) | 5 (A herbicidal effect or phytotoxicity of 90% or more) | 5 (A herbicidal effect or phytotoxicity of 90% or more) | – | –
CC1(C)CC(S(=O)(=O)Cc2ccc(F)cc2F)=NO1 [Compound 1-505] | 5 (A herbicidal effect or phytotoxicity of 90% or more) | 5 (A herbicidal effect or phytotoxicity of 90% or more) | 5 (A herbicidal effect or phytotoxicity of 90% or more) | 5 (A herbicidal effect or phytotoxicity of 90% or more) | – | –
CC1(C)CC(S(=O)(=O)Cc2cccc(Cl)c2Cl)=NO1 [Compound 1-487] | – | 5 (A herbicidal effect or phytotoxicity of 90% or more) | 4 (A herbicidal effect or phytotoxicity of 70% to less than 90%) | – | 5 (A herbicidal effect or phytotoxicity of 90% or more) | 5 (A herbicidal effect or phytotoxicity of 90% or more)
CC1(C)CC(S(=O)(=O)Cc2cc(F)c(F)c(F)c2)=NO1 [Compound 1-509] | 5 (A herbicidal effect or phytotoxicity of 90% or more) | 5 (A herbicidal effect or phytotoxicity of 90% or more) | 4 (A herbicidal effect or phytotoxicity of 70% to less than 90%) | 5 (A herbicidal effect or phytotoxicity of 90% or more) | – | –
CC(C)Oc1cccc(F)c1CS(=O)(=O)C1=NOC(C)(C)C1 [Compound 1-570] | 5 (A herbicidal effect or phytotoxicity of 90% or more) | 5 (A herbicidal effect or phytotoxicity of 90% or more) | 5 (A herbicidal effect or phytotoxicity of 90% or more) | 5 (A herbicidal effect or phytotoxicity of 90% or more) | – | –
CCCOc1cccc(C)c1CS(=O)(=O)C1=NOC(C)(C)C1 [Compound 1-603] | 5 (A herbicidal effect or phytotoxicity of 90% or more) | 5 (A herbicidal effect or phytotoxicity of 90% or more) | 4 (A herbicidal effect or phytotoxicity of 70% to less than 90%) | 5 (A herbicidal effect or phytotoxicity of 90% or more) | – | –
O=S(=O)(Cc1c(F)cccc1F)C1=NOC2(CCCC2)C1 [Compound 1-383] | – | 5 (A herbicidal effect or phytotoxicity of 90% or more) | 4 (A herbicidal effect or phytotoxicity of 70% to less than 90%) | – | 4 (A herbicidal effect or phytotoxicity of 70% to less than 90%) | 5 (A herbicidal effect or phytotoxicity of 90% or more)
COc1cc(CS(=O)(=O)C2=NOC(C)(C)C2)cc(OC)c1 [Compound 1-524] | 5 (A herbicidal effect or phytotoxicity of 90% or more) | 5 (A herbicidal effect or phytotoxicity of 90% or more) | 5 (A herbicidal effect or phytotoxicity of 90% or more) | 5 (A herbicidal effect or phytotoxicity of 90% or more) | – | –
CC1(C)CC(S(=O)(=O)Cc2cccc(OC(F)F)c2)=NO1 [Compound 1-56] | – | 5 (A herbicidal effect or phytotoxicity of 90% or more) | 5 (A herbicidal effect or phytotoxicity of 90% or more) | – | 5 (A herbicidal effect or phytotoxicity of 90% or more) | 5 (A herbicidal effect or phytotoxicity of 90% or more)
Cc1cccc(C)c1CS(=O)(=O)C1=NOC(C)(C)C1 [Compound 1-185] | – | 5 (A herbicidal effect or phytotoxicity of 90% or more) | 5 (A herbicidal effect or phytotoxicity of 90% or more) | – | 5 (A herbicidal effect or phytotoxicity of 90% or more) | 5 (A herbicidal effect or phytotoxicity of 90% or more)
CC1(C)CC(S(=O)(=O)Cc2ccc(Cl)cc2[N+](=O)[O-])=NO1 [Compound 1-539] | 5 (A herbicidal effect or phytotoxicity of 90% or more) | 5 (A herbicidal effect or phytotoxicity of 90% or more) | 5 (A herbicidal effect or phytotoxicity of 90% or more) | 5 (A herbicidal effect or phytotoxicity of 90% or more) | – | –
